From patent publication US9895309B2, “Selenosugars for skin tissue repair” (SELENO THERAPEUTICS PTY LTD., priority 2014, dated 2018)

Columns and labels:
[1] = tested on: wildtype C57/BL6 mice; assay: Wound closure, circular incision wounds, wildtype mice, topical treatment; type: in vivo, mouse
Procedure: (§1) In the experimental testing according to the present invention, pairs of circular incision wounds on the backs of wildtype C57/BL6 and db^−/db^− mice (n=12 each) were treated daily with a selenosugar according to the current invention or vehicle, topically for 10 days. Wound closure, vascular perfusion and tissue histology were assessed.

[2] = tested on: wildtype mice; assay: Wound healing comparison of selenosugar with DHSred at the same dose, wildtype mice; type: in vivo, mouse; conditions: for Wound healing after topical application / Scar tissue formed during wound healing: same dose; for Wound healing after topical application / Pus formation in wound: FIG. 16; for Scar tissue formed during wound healing: FIG. 17; for Pus formation in wound: topical
Source text: FIG. 15 is a plot illustrating the performance of a selenosugar according to the present invention (1,4-anhydro-4-seleno-D-talitol) (8) against a similar water-soluble selenium compound that is not sugar derived (DHSred) (10) in non-diabetic (wt) mice over time. FIG. 15a illustrates % wound closure in terms of the wound size and FIG. 15b illustrates blood flow intensity (Doppler measurement) in arbitrary units where ** indicates p<0.01, *** p<0.001 and **** p<0.0001 and N=6;
FIG. 16 illustrates a wound treated with a selenosugar according to the present invention (ii) and a wound treated with DHSred (i) at the same dose.
FIG. 17 illustrates typical differences in scar tissue that forms during wound healing in wildtype mice having a wound treated with a selenosugar according to the present invention (ii) and a wound treated with DHSred (i) at the same dose.

[3] = tested on: indomethacin-induced stomach ulcers in mice; conditions: Chakraborty et al; cited from earlier work
[4] = tested on: db/db mice; assay: Wound closure, circular incision wounds, diabetic db/db mice, topical treatment; type: in vivo, mouse
Procedure: FIG. 1 illustrates wound closure observed in the db/db mouse models topically treated with a 1 mM saline solution of 1,4-anhydro-4-seleno-D-talitol (selenosugar) (b) and a non-selenium control sugar, 1,4-anydro-D-talitol (a).
as §1

[5] = tested on: db/db mice; assay: Vascular perfusion of wounds by Doppler imaging, diabetic mice; type: in vivo; conditions: diabetic mouse wounds, p<0.05, FIG. 2
Source text: FIG. 2 illustrates vascular perfusion measured by Doppler imaging and corresponding to the selenosugar treated wound (1) and the untreated control wound (2) of the db^−/db^− mouse model of FIG. 1 (where * indicates p, 0.05, and n=6). Doppler imaging is a non-invasive technique used to evaluate blood flow velocity with red blood cells as the moving target;
as §1

[6] = tested on: db/db mice; assay: Tissue histology of diabetic wounds; type: in vivo, mouse; conditions: diabetic wounds vs vehicle
Source text: FIGS. 3 to 12 illustrate comparative tissue histology for (a) the wildtype and (b) db/db mouse models, both (i) non-treated mice, (ii) mice treated for 5 days and (iii) mice treated for 10 days. The figures also illustrate plots against time in days for the following wound parameters for (i), (ii) and (iii) (where * indicates p<0.05, ** indicates p<0.01, *** indicates p<0.001);
as §1

[7] = wildtype mice, listed as DHSred

OC[C@@H](O)[C@@H]1[Se]C[C@@H](O)[C@H]1O [Formula II, 1,4-anhydro-4-seleno-D-talitol]
Wound closure relative to controls ([1]; day 4): 2 fold | Wound closure ([1]; day 4, daily topical treatment, p<0.05 vs controls): 32% | Wound closure ([1]; day 10, daily topical treatment, p<0.01 vs controls): 82% | Inflammatory response during tissue repair ([2]; FIG. 16 and histology): anti-inflammatory response | Tissue repair during wound healing, formula II vs formula III ([2]; wildtype mice, FIG. 15): superior | Wound healing after topical application ([2]; wildtype mice): improved wound closure and healing | Scar tissue formed during wound healing ([2]; wildtype mice): significantly less scar tissue

O[C@@H]1C[Se]C[C@H]1O (racemic) [Formula III, DL-trans-3,4-dihydroxy-1-selenolane]
Healing of indomethacin-induced stomach ulcers [3]: accelerate healing | Wound healing after topical application ([2]; wildtype mice): reduced wound healing | Wound healing after topical application [2, 7]: inferior healing | Scar tissue formed during wound healing ([2]; wildtype mice): pronounced scar tissue build up | Pus formation in wound ([2]; wildtype mice): observable pus formation | Pus formation in wound [2, 7]: development of pus

1,4-anhydro-4-seleno-D-talitol [Formula II]
Wound closure relative to control db/db mice ([4]; day 4): 3 fold | Wound closure ([4]; day 4, p<0.001 vs control db/db mice): 32% | Wound closure relative to control db/db mice ([4]; day 10): 2 fold | Wound closure ([4]; day 10, p<0.0001 vs control db/db mice): 83% | Vascular perfusion (Doppler imaging) [5]: improved vascular perfusion | IL-6 level (tissue histology) ([6]; FIG. 4, p<0.05): decreased | Elastin level (tissue histology) ([6]; FIG. 6, p<0.01): increased | MCP-1 level (tissue histology) ([6]; FIG. 9, p<0.001): decreased | MPO level (tissue histology) ([6]; FIG. 10, p<0.001): decreased | vWF level (tissue histology) ([6]; FIG. 12, p<0.01): decreased
